Assay results from patent publication US7135303B2, “Regulators of type-1 tumor necrosis factor receptor and other cytokine receptor shedding” (The United States of America as represented by the …, priority 2000, dated 2006).

Tests used:
Assay in all cases: ARTS-1 aminopeptidase activity assay (amide bond hydrolysis of amino acid p-nitroanilide substrates, absorbance at 380 nm)
[1] = target: T1, recombinant GST-ARTS-1 fusion protein (Homo sapiens, UniProt Q9NZ08); format: biochemical; conditions: for Vmax: aa-pNA substrate 0.25 to 8 mM, 24 pmoles GST-ARTS-1, 50 mM Tris pH 7.5, room temperature, 1 hour; for Vmax / Km: Lineweaver-Burk; for kcat / Km: aa-pNA substrate with GST-ARTS-1; for aminopeptidase activity of recombinant GST-ARTS-1 against the amino acid substrate: acidic or basic amino acid p-nitroanilide substrates
T1 construct: ARTS-1 extracellular domain (i.e., the ectodomain; amino acids 30–941) was PCR amplified; made in house
Description: (§1) To accomplish this, commercially available amino acid p-nitroanilide substrates were incubated with purified GST-ARTS-1 fusion protein for 1 hour under conditions of linear enzyme activity over time. The rate of amide bond hydrolysis was determined by measuring the absorbance of the p-nitroaniline aminopeptidase reaction product at 380 nm. Each experimental point was run in triplicate and each determination utilized six concentrations of amino acid p-nitroanilide substrate. Kinetic constants were determined by Lineweaver-Burk analysis. Correlation coefficients for each line generated were greater than 0.997. Each amino acid p-nitroaniline substrate tested is shown in the left colurnr, along with its polar/non-polar/acidic/basic nature. Vmax is a measure of the theoretical enzyme maximal velocity, Km is the Michaelis-Menten constant for each ARTS-1/substrate combination, kcat is the first order rate constant (i.e., the turnover number) for the ARTS-1/substrate combination, and kcat/Km is the second order rate constant for the ARTS-1/substrate combination (i.e., a measure of overall catalytic efficiency).
(§2) Aminopeptidase activity of the recombinant GST-ARTS-1 fusion protein was assessed by determination of the rate of amide bond hydrolysis of amino acid p-nitroanilide substrates (Bachem). Amino acid p-nitroanilides (final concentrations 0.25 to 8 mM) were incubated at room temperature with 24 pmoles of GST-ARTS-1 fusion protein in 200 μl of 50 mM Tris, pH 7.5 for 1 hour. Reactions were terminated by addition of 280 μl of 3M sodium acetate (pH 5.2). The rate of amide bond hydrolysis was determined by measuring the absorbance of p-nitroaniline at 380 nm (See, Table 3, supra). Spontaneous hydrolysis of the substrate was corrected for by subtracting the absorbance of control incubations which were terminated immediately. Kinetic constants were determined by Lineweaver-Burk analysis. Each experimental point was assayed in triplicate and each determination utilized six concentrations of each amino acid p-nitroanilide substrate. Correlation coefficients for each line generated were greater than 0.997.

[2] = substrate: CC[C@H](C)[C@H](N)C(=O)Nc1ccc([N+](=O)[O-])cc1; format: biochemical, human; conditions: other: aa-pNA substrate with GST-ARTS-1; Lineweaver-Burk
Description: as §1, §2

[3] = substrate: NCC(=O)Nc1ccc([N+](=O)[O-])cc1; format: biochemical, human; conditions: other: aa-pNA substrate with GST-ARTS-1; Lineweaver-Burk
Description: as §1, §2

[4] = substrate: N[C@@H](Cc1ccccc1)C(=O)Nc1ccc([N+](=O)[O-])cc1; format: biochemical, human; conditions: other: aa-pNA substrate with GST-ARTS-1; Lineweaver-Burk
Description: as §1, §2

Vmax [1]	kcat [1]	Km [1]	aminopeptidase activity of recombinant GST-ARTS-1 against the amino acid substrate [1]	Molecule	also measured
26.18 ± 0.24 pmol/pmol/min	43.63 ± 0.40 s^−1 × 10^−2	16.8 ± 0.18 mM	–	C[C@H](N)C(=O)Nc1ccc([N+](=O)[O-])cc1 [Ala]	–
No Activity	No Activity	–	no activity	N[C@@H](CC(=O)O)C(=O)Nc1ccc([N+](=O)[O-])cc1 [Asp]	–
8.95 ± 0.31 pmol/pmol/min	14.92 ± 0.52 s^−1 × 10^−2	4.57 ± 0.2 mM	–	N[C@@H](CS)C(=O)Nc1ccc([N+](=O)[O-])cc1 [Cys]	–
No Activity	No Activity	–	no activity	N[C@@H](CCC(=O)O)C(=O)Nc1ccc([N+](=O)[O-])cc1 [Glu]	–
8.67 ± 0.05 pmol/pmol/min	–	–	–	NCC(=O)Nc1ccc([N+](=O)[O-])cc1 [Gly, glycine p-nitroanilide]	–
No Activity	No Activity	–	no activity	N[C@@H](Cc1cnc[nH]1)C(=O)Nc1ccc([N+](=O)[O-])cc1 [His]	–
5.81 ± 0.87 pmol/pmol/min	–	–	–	CC[C@H](C)[C@H](N)C(=O)Nc1ccc([N+](=O)[O-])cc1 [Ile, isoleucine p-nitroanilide]	–
9.45 ± 0.43 pmol/pmol/min	15.75 ± 0.72 s^−1 × 10^−2	5.26 ± 0.25 mM	–	CC(C)C[C@H](N)C(=O)Nc1ccc([N+](=O)[O-])cc1 [Leu]	–
No Activity	No Activity	–	no activity	NCCCC[C@H](N)C(=O)Nc1ccc([N+](=O)[O-])cc1 [Lys]	–
13.36 ± 0.75 pmol/pmol/min	22.27 ± 1.25 s^−1 × 10^−2	7.71 ± 0.43 mM	–	CSCC[C@H](N)C(=O)Nc1ccc([N+](=O)[O-])cc1 [Met]	–
5.14 ± 0.04 pmol/pmol/min	–	–	–	N[C@@H](Cc1ccccc1)C(=O)Nc1ccc([N+](=O)[O-])cc1 [Phe, phenylalanine p-nitroanilide]	–
5.29 ± 0.08 pmol/pmol/min	8.82 ± 0.13 s^−1 × 10^−2	4.68 ± 0.06 mM	–	O=C(Nc1ccc([N+](=O)[O-])cc1)[C@@H]1CCCN1 [Pro]	–
5.31 ± 0.31 pmol/pmol/min	8.85 ± 0.52 s^−1 × 10^−2	5.69 ± 0.26 mM	–	CC(C)[C@H](N)C(=O)Nc1ccc([N+](=O)[O-])cc1 [Val]	–
–	–	–	–	recombinant GST-ARTS-1 fusion protein (Homo sapiens) (protein, ARTS-1 extracellular domain (i.e., the ectodomain; amino acids 30–941) was PCR amplified; made in house) SWCQSTEASPKRSDGTPFPWNKIRLPEYVIPVHYDLLIHANLTTLTFWGTTKVEITASQPTSTIILHSHHLQISRATLRKGAGERLSEEPLQVLEHPRQEQIALLAPEPLLVGLPYTVVIHYAGNLSETFHGFYKSTYRTKEGELRILASTQFEPTAARMAFPCFDEPAFKASFSIKIRREPRHLAISNMPLVKSVTVAEGLIEDHFDVTVKMSTYLVAFIISDFESVSKITKSGVKVSVYAVPDKINQADYALDAAVTLLEFYEDYFSIPYPLPKQDLAAIPDFQSGAMENWGLTTYRESALLFDAEKSSASSKLGITMTVAHELAHQWFGNLVTMEWWNDLWLNEGFAKFMEFVSVSVTHPELKVGDYFFGKCFDAMEVDALNSSHPVSTPVENPAQIREMFDDVSYDKGACILNMLREYLSADAFKSGIVQYLQKHSYKNTKNEDLWDSMASICPTDGVKGMDGFCSRSQHSSSSSHWHQEGVDVKTMMNTWTLQKGFPLITITVRGRNVHMKQEHYMKGSDGAPDTGYLWHVPLTFITSKSDMVHRFLLKTKTDVLILPEEVEWIKFNVGMNGYYIVHYEDDGWDSLTGLLKGTHTAVSSNDRASLINNAFQLVSIGKLSIEKALDLSLYLKHETEIMPVFQGLNELIPMYKLMEKRDMNEVETQFKAFLIRLLRDLIDKQTWTDEGSVSERMLRSQLLLLACVHNYQPCVQRAEGYFRKWKESNGNLSLPVDVTLAVFAVGAQSTEGWDFLYSKYQFSLSSTEKSQIEFALCRTQNKEKLQWLLDESFKGDKIKTQEFPQILTLIGRNPVGYPLAWQFLRKNWNKLVQKFELGSSSIAHMVMGTTNQFSTRTRLEEVKGFFSSLKENGSQLRCVQQTIETIEENIGWMDKNFDKIRVWLQSEKLERM	Km [2]: 1.67 ± 0.02 mM; kcat [2]: 0.0968 ± 0.0015 s⁻¹; kcat/Km [2]: 58 M⁻¹ s⁻¹; Km [3]: 3.67 ± 0.03 mM; kcat [3]: 0.1445 ± 0.0008 s⁻¹; kcat/Km [3]: 39.4 M⁻¹ s⁻¹; Km [4]: 1.66 ± 0.03 mM; kcat [4]: 0.0857 ± 0.0006 s⁻¹; kcat/Km [4]: 51.6 M⁻¹ s⁻¹

Molecule	Vmax [1]	kcat [1]	Km [1]	aminopeptidase activity of recombinant GST-ARTS-1 against the amino acid substrate [1]	also measured
N=C(N)NCCC[C@H](N)C(=O)Nc1ccc([N+](=O)[O-])cc1 [Arg]	No Activity	No Activity	–	no activity	–
